Test results published in US20260275279A1, “THYROCYTES AND USES THEREOF” (LifeNet Health, priority 2023, published 2026).
Read-outs that look alike come from different tables or passages of the source.

What was measured:
T4 synthesis = experiment: Reference chemical evaluation: inhibition of T4 synthesis in 3D microtissue cultures; assay type: cell-based, human; details: for effect on T4 levels: 0.0001 to 100 μM; for IC50: 120-h treatment days 9-14, 1 mIU/mL bovine TSH, 7,500 cells/well, read-out: Average half-maximal inhibitory concentrations (IC50), T4 synthesis
Method: 3D cultures with cell seeding density of 7,500 cells/well were treated with 1 mIU/mL bovine TSH on days 2, 5, 7, 9, and 12. For each studied compound, cells were dosed on days 9 and 12 with concentrations ranging from 0.0001 to 100 μM across a log-fold titration. T4 levels were measured as described. All measured data were normalized to DMSO vehicle control.
Images are shown from representative donor lots. Values were normalized to the number of cells seeded per well. Significance was calculated in MiniTab (State College, PA) using either Student's t-test between 2 groups or One-way ANOVA with Tukey post hoc testing when comparing 3 groups or more to determine statistical significance with 95% confidence and *p<0.05 for statistical significance. GraphPad Prism v.9 was used to determine EC50 and EC90. Four-parameter nonlinear regression fit was used to determine the half-maximal inhibition concentration IC50 using GraphPad Prism v.9.
Established antagonists of thyroid hormone production were selected to determine the concentration-response profiles in 3D cultures for TDC screening purposes (FIG. 21).

T3/T4 synthesis = experiment: Example 10 3D culture TDC screening, T3/T4 synthesis by ELISA and LC-MS/MS; assay type: cell-based, human
Method: For TDC Screening, these procedures were followed: • Prepare the Plate by adding 50 μL of 10 mg/ml of Matrigel, then polymerize the Matrigel at 37° C. for 1 hr. • Thaw the thyrocytes in 37° C. water bath. • Resuspend the cells in humanized medium (h7H). • Seed the cells at the optimal seeding density, 7,500 cells per 0.32 cm2. • Culture the cells in h7H medium. • Exchange the medium on Day 2, 5, 7, 9 and 12. • Start stimulating the cells with activators (e.g., bTSH, hTSH, M22, K!-18, ML-109) on Day 2 • Treatment with the activator is between Day 2-14 • Compound treatment starts on Day 9. • 8 doses: Concentrations (10^−10 to 10^−4M) • Serial dilutions were made in DMSO (Dilution factor 1:1000) • Compounds were added to the media • Day 12: Refresh media with the compound • Day 14: Collect the supernatant for the T4 analysis by ELISA and LC-MS/MS.

[1] = test system: 3D thyrocyte cell culture; details: 1.0×10^−10 to 1.0×10^−4 M
Method: After collecting media for T4 measurement, backing tape was put on the back of the 3D culture 96-well plate. 100 μL of a 1:1 mixture of CellTiter-Glo® Luminescent Cell Viability Assay (Promega, Madison, WI) and HTCM was added into each well of the 3D cell culture plate. The plate was covered and shaken for 2 minutes on an orbital plate shaker at 500 rpm followed by a 10 minute incubation in the dark without shaking. Luminescence reading was recorded using a CLARIOStar (BMG Labtech) microplate reader.

Row | IC50 (T4 synthesis) | IC50 (T4 synthesis; Homo sapiens, 120 h) | Compound | effect on T4 levels (T4 synthesis) | T3/T4 synthesis (T3/T4 synthesis) | toxicity of inhibitor concentrations to the cells [1]
1 | 767 nM | 659 nM | CCCc1cc(=O)[nH]c(=S)[nH]1 [6-propyl-2-thiouracil] | consistent concentration-dependent decrease in T4 levels | inhibited | not toxic to the cells with the exception of 6-propyl-2-thiouracil for 2021159 at the highest dose
2 | – | – | Cn1cc[nH]c1=S [methimazole, Methimazole] | consistent concentration-dependent decrease in T4 levels | inhibited | –
